Results as given in patent publication US7355074B2, “Compounds having aromatic rings and side-chain amide-functionality and a method for transporting monovalent anions across biological membranes using the same” (The University of Maryland, priority 2003, dated 2008).

Legend:
[1] = intravesicular pH of LUVs experiencing a Cl- gradient (calixarene amides); assay type: biochemical; conditions: NaCl-loaded LUVs in isosmotic Na2SO4 buffer
Description: FIG. 8 illustrates changes in intravesicular pH upon addition of calixarene tetrabutylamide and calixarene octabutylamide to NaCl^+ loaded vesicles suspended in a sulfate phosphate buffer (emission of HPTS is used to monitor the pH changes in LUVs). At t=60 s, 20 μL of 500 μM of calixarene tetrabutylamide 2 (top trace) or the octabutylamide 3 (bottom trace) was added to 1.95 mL of a LUV suspension to give 1:100 ligand:lipid molar ratio. At t=500 s, 40 μL of 5% Triton X-100 was added. Intravesicular pH values were obtained as a function of the ratio of HPTS emission intensities at 510 nm, when excited at […]. The calibration was performed by measuring the HPTS emission intensities and the pH values of a […] HPTS solution in 10 mM phosphate buffer containing 100 mM NaCl. The calibration equation obtained (pH=1.1684×log (I0I1)+6.9807, r=0.998, where I0 is the emission intensity with excitation at […]) was used to convert the emission intensities into actual pH values.
The pH reached its maximum 250 s after addition of 2 and held constant until the liposomes were lysed with detergent. […] In effect, compound 2 moves […] along with Cl^− down the chloride gradient, consequently building a pH gradient across the membrane. Therefore, NaCl filled vesicles lose Cl^− and H^+ upon addition of 2 and become more alkaline.
Calcein-Release Assay. Calcein-loaded vesicles (100 μL of the stock solution), filled with a saline phosphate buffer (10 mM sodium phosphate, pH 6.4, […] NaCl), were suspended in 1.85 mL of an isoosmotic phosphate sulfate buffer (10 mM sodium phosphate, pH 6.4^−75 mM (Na2SO4) and placed into a fluorimetric cell. HPTS emission at 510 nm was monitored with excitation wavelengths at 403 and 460 nm simultaneously. During the experiment, 20 μL of a 0-500 μM THF solution of the compound of interest was added through an injection port. Intravesicular pH values were obtained as a function of the ratio of HPTS emission intensities at 510 nm, when excited at 403 and 460 nm. […]

HEK-293 cells = assay: patch-clamp recordings in whole-cell configuration; assay type: cell-based
Text: FIG. 11 illustrates voltage clamp recordings in whole cell configuration (HEK-293 cells). (A) Current across membrane after application of calixarene tetrabutylamide 2 at different voltages. From bottom to top, trace denotes currents at −120, −80, −40, 0, 40, 80 and 120 mV, respectively, with saline physiological buffer being used (B) Current across membrane in a sodium glutamate isosmotic-buffer at different voltages. The potential was varied over a range of −120 through +120 mV, with a 40 mV step. (C) Current across membrane in Na2SO4 isosmotic buffer at different voltages. The potential was varied over a range of −120 through +120 mV, with a 40 mV steps. (D) Current across the membrane at +120 mV in application/wash cycle traces from bottom to top denote current in absence of 2, current after first application of 2 (a), following by […] lavage, second application (b), and third application (c). Trace on top denotes current after lavage without application of 2. Baselines of the first and last traces shifted for clarity, saline physiological buffer used.
Electrophysiological Recordings. Patch-Clamp Experiments. HEK 293 cells, plated in […] dishes containing 10 mL of the growth media were maintained at 37° C. with 5% CO2 in the incubator. Growth medium for HEK 293 cells was minimum essential medium supplemented with 10% fetal bovine serum, 100 U mL penicillin and 100 μg/mL streptomycin. Electrophysiological recordings were performed in the whole-cell configuration of the patch-clamp technique using a DAGAN 8900 amplifier (Dagan Corp., Minneapolis, Minn.). The patch electrodes, pulled from borosilicate class capillaries, had resistance of 3-4 MΩ when filled with internal solution containing (in mM): CsCl 110: tetraethylammonium chloride, 20; MgATP. 5:EGTA. 14: HEPES, 20 and titrated to pH 7.4 with CsOH. Approximately 90% of electrode resistance was compensated electronically, so that effective series resistance was less than 1 MΩ. HEK cells were used for experiments 2 to 4 days after plating the cells on the cover sips. Generation of the voltage-clamp protocols and data acquisition were carried out using PCLAMP software (Axon instruments, Inc., Burlingame, Calif.). Sampling frequency was 0.5-2.0 kHz, and current signals were filtered at […] before digitization and storage. All experiments were performed at room temperature (23-25° C.). […] Cells plated on plastic cover slips 915 mm round thermanox, Nunc, Inc., Napierville, Ill.) were transferred to an experimental chamber mounted on the stage of an inverted microscope (Diaphot, Nikon, Nagano, Japan) and were bathed in a solution containing (in mM):NaCl, 137:CaCl2, 2; KCl. 5.4; HEPES, 10; glucose, 10:glucose, 10; MgCl2, 1 (pH 7.4 adjusted with NaOH). The experimental chamber was constantly perfused at a rate of about 1 mL/min with a control bathing solution. In solutions buffered on the cell under recording KCl was omitted and in some experiments NaCl was replaced by isoosmotic amounts of Na2SO4 or Na glutamate. Servo-controlled miniature solenoid valves were used for rapid switching between control and test solutions (delay in solution change was <20 ms). Compound 2 was dissolved in DMSO, and DMSO was added in an equal amount to the control and test solutions.

Compound: CCCCNC(=O)COc1c2cccc1Cc1cccc(c1OCC(=O)NCCCC)Cc1cccc(c1OCC(=O)NCCCC)Cc1cccc(c1OCC(=O)NCCCC)C2 [calix[4]arene tetrabutylamide 2, Calix[4]arene tetrabutylamide]
- change of intravesicular pH / pH gradient formation [1]: rapid increase in intravesicular pH
- time to maximum intravesicular pH after addition [1]: 250 s
- lavage time after which the current returned to the baseline (HEK-293 cells; +120 mV): 1.5 min
- cells that responded at +80 mV (HEK-293 cells; NaCl buffer): 3 of 15
- damage to the cell membrane (HEK-293 cells; application/wash cycle): did not damage the cell membrane
- holding potential at which current across the cell membrane was caused (HEK-293 cells; extracellular application, NaCl buffer): +120 mV
- current in isosmotic Na glutamate or Na2SO4 buffer (HEK-293 cells; holding potentials between −120 and +120 mV): no current across the membrane
